Assay results reported in publication PMC3853768 (Molecular Pain, 2013).
“Also recorded” adds a separate entry of the source.

Assays:
R-type channels (Cav2.3) = format: cell-based, mouse
residual ICa = format: cell-based, mouse

Row | Compound | effect on ICa of R-type blocker (R-type channels (Cav2.3)) | block of residual ICa (residual ICa)
1 | SNX-482: blocker of R-type channels (Cav2.3), from Peptide Institute (GVDKAGCRYMFGGCSVNDDCCPRLGCHSLFSYCAWDLTFSD; UniProt P56854 1-41, looked up) | lack of effect; also recorded: without effect | –
2 | [Cl][Cd][Cl] [CdCl2] | – | residual ICa was blocked
